Results on seven compounds are retold here after ChEMBL document CHEMBL4431294 (Medchemcomm, 2016).

Structures are written as SMILES. ≈ marks a conversion by molar mass, not a printed value. Some results are limits rather than exact numbers.

Assay [1] can be described thus: Binding affinity to pre-microRNA-27a (unknwon origin) at 500 nM by spectrofluorometric method.
In a further assay the test system is Proteus vulgaris. In words: Antibacterial activity against Proteus vulgaris. Format: functional.
The test system of assay [2] is Mycobacterium tuberculosis. Kind of assay: Antibacterial activity against Mycobacterium tuberculosis 607. It is filed as functional.
Assay [3] relates to Klebsiella pneumoniae. Kind of assay: Antibacterial activity against Klebsiella pneumoniae. It is filed as functional.
The nature of assay [4]: Antibacterial activity against Eberthella typhosa. It is filed as functional.
The subject of assay [5] is Escherichia coli. Kind of assay: Antibacterial activity against Escherichia coli. It is filed as functional.
In assay [6] the test system is Staphylococcus aureus. In words: Antibacterial activity against Staphylococcus aureus. It is filed as functional.
The subject of the next assay is Bacillus subtilis. Kind of assay: Antibacterial activity against Bacillus subtilis. It is filed as functional.
Assay [7] deals with Bordetella bronchiseptica. Kind of assay: Antibacterial activity against Bordetella bronchiseptica. It is filed as functional.
The test system of assay [8] is Salmonella enterica subsp. enterica serovar Paratyphi B. Kind of assay: Antibacterial activity against Salmonella schottmuelleri. It is filed as functional.
For assay [9], the system named is Pseudomonas aeruginosa. In words: Antibacterial activity against Pseudomonas aeruginosa ATCC 27853 harboring APH(3'). Format: functional.
Assay [10] has as its system Klebsiella pneumoniae. Kind of assay: Antibacterial activity against Klebsiella pneumoniae ATCC 10031. Format: functional.
Assay [11] has as its system Staphylococcus aureus. Kind of assay: Antibacterial activity against Staphylococcus aureus harboring ANT(4'). Format: functional.
In assay [12] the test system is Escherichia coli. Kind of assay: Antibacterial activity against Escherichia coli ATCC 25922. Format: functional.
For assay [13], the system named is Staphylococcus aureus. In words: Antibacterial activity against Staphylococcus aureus ATCC 29213. Format: functional.
The subject of assay [14] is Pseudomonas aeruginosa. Kind of assay: Antibacterial activity against Pseudomonas aeruginosa after 12 hrs. It is filed as functional, organism-based.
The nature of assay [15]: Binding affinity to 22-mer TAT triplex DNA (unknown origin) at 8 uM by isothermal titration calorimetry.
Assay [16] addresses Rev responsive element (RRE) RNA. In words: Displacement of fluorescein-labeled RevF1 from HIV1 66-nucleotide RRE RNA by fluorescence anisotropy method. Format: nucleic-acid assay, Human immunodeficiency virus 1.

In [1], `CN1CCN(c2ccc3nc(-c4ccc5[nH]c(-c6ccc(OCc7cn(CCCCC(=O)C(CCn8cc(OCc9cn(C[C@H]%10O[C@@H](O[C@@H]%11[C@@H](O)[C@H](N)C[C@H](N)[C@H]%11O[C@H]%11O[C@H](CN)[C@@H](O)[C@H](O)[C@H]%11N)[C@H](O)[C@@H]%10O[C@H]%10O[C@@H](CN)[C@@H](O)[C@H](O)[C@H]%10N)nn9)nn8)CCn8cc(OCc9cn(C[C@H]%10O[C@@H](O[C@@H]%11[C@@H](O)[C@H](N)C[C@H](N)[C@H]%11O[C@H]%11O[C@H](CN)[C@@H](O)[C@H](O)[C@H]%11N)[C@H](O)[C@@H]%10O[C@H]%10O[C@@H](CN)[C@@H](O)[C@H](O)[C@H]%10N)nn9)nn8)nn7)cc6)cc5c4)[nH]c3c2)CC1` gave a Ka of 1.2 to 7.4 ×10⁸ /M.

`NCC1O[C@H](O[C@H]2[C@@H](O)[C@H](O[C@@H]3[C@@H](O)[C@H](N)C[C@H](N)[C@H]3O[C@H]3O[C@H](CN)[C@@H](O)[C@H](O)[C@H]3N)O[C@@H]2CO)[C@H](N)[C@@H](O)[C@@H]1O` (some centres not stated): the MIC against Proteus vulgaris was 1 µg/mL (≈ 1.63 µM); in assay [2], 0.33 µg/mL (≈ 0.537 µM); in the assay with Klebsiella pneumoniae [3], 0.05 µg/mL (≈ 0.0813 µM); in assay [4], 0.033 µg/mL (≈ 0.0537 µM); in the assay with Escherichia coli [5], 0.1 µg/mL (≈ 0.163 µM); against Staphylococcus aureus [6] it was 0.017 µg/mL (≈ 0.0277 µM). Moreover, the results for the MIC (in the assay on Bacillus subtilis; in assay [7]; in [8]) were 0.01 µg/mL (≈ 0.0163 µM), 0.5 µg/mL (≈ 0.813 µM) and 0.1 µg/mL (≈ 0.163 µM), respectively.

Consider `NCC1=CC[C@@H](N)[C@@H](O[C@H]2[C@H](O[C@@H]3O[C@H](CO)[C@@H](O[C@H]4O[C@@H](CN)[C@@H](O)[C@H](O)[C@H]4N)[C@H]3O)[C@@H](O)[C@H](N)C[C@@H]2N)O1`, for which the minimum inhibitory concentration (MIC) in the assay on Pseudomonas aeruginosa [9], in the assay with Klebsiella pneumoniae [10], with Staphylococcus aureus [11], in the assay on Escherichia coli [12] and in the assay on Staphylococcus aureus [13] was 0.5 to 2 µg/mL (≈ 0.861 to 3.44 µM) in each case.

Compound `NC[C@H]1O[C@H](O[C@H]2[C@H](NCCCCCCCCNC(=O)c3cc4c(cn3)[nH]c3ccccc34)[C@@H](O)[C@H](N)C[C@@H]2N)[C@H](N)[C@@H](O)C1O` (single isomer, unassigned) showed an IC50 in the assay on Pseudomonas aeruginosa [14] of 85.4 µg/mL (≈ 133 µM).

Take `CC(=O)c1ccc2c(ccc3nc4c(NCCCNC(=O)NCCSC[C@H]5O[C@@H](O[C@@H]6[C@@H](O)[C@H](N)C[C@H](N)[C@H]6O[C@H]6O[C@H](CN)[C@@H](O)[C@H](O)[C@H]6N)[C@H](O)[C@@H]5O[C@H]5OC(CN)[C@@H](O)[C@H](O)[C@H]5N)nc5ccccc5c4nc32)c1` (some centres not stated): the Kd in [15] turned out to be 27 nM.

For `NCC1O[C@H](O[C@H]2[C@@H](O)[C@H](O[C@@H]3[C@@H](O)[C@H](N)C[C@H](N)[C@H]3O[C@H]3O[C@H](CN)[C@@H](O)[C@H](O)[C@H]3N)O[C@@H]2CNc2c3ccccc3nc3ccccc23)[C@H](N)[C@@H](O)[C@@H]1O` (some centres not stated), the Kd in assay [16] is no more than 10 nM.

Consider `NC[C@H]1O[C@H](O[C@H]2[C@H](O)[C@@H](O)[C@H](N)C[C@@H]2N)[C@H](N)[C@@H](O)[C@@H]1O` [NEAMINE], for which the MIC is less than 0.33 µg/mL against Proteus vulgaris; 5 µg/mL (≈ 15.5 µM) in assay [2]; 0.5 µg/mL (≈ 1.55 µM) in the assay on Klebsiella pneumoniae [3]; 0.17 µg/mL (≈ 0.527 µM) in [4]; 1 µg/mL (≈ 3.1 µM) in the assay with Escherichia coli [5]; 0.13 µg/mL (≈ 0.403 µM) against Staphylococcus aureus [6]. Besides, the minimal inhibitory concentration (MIC) in the assay on Bacillus subtilis is 1 µg/mL (≈ 3.1 µM); in assay [7], 3.3 µg/mL (≈ 10.2 µM); in [8], 1 µg/mL (≈ 3.1 µM).

One may read the MIC as the lowest concentration that inhibits growth of the organism. High values mean a less susceptible organism, low ones a more susceptible organism. As usually defined, the IC50 is the concentration at which inhibition is half-maximal. A lower IC50 goes with greater potency in that assay. A word on the Kd: it is the constant that tells how readily two partners part at equilibrium. A higher Kd goes with weaker binding.
